Laboratory results from patent publication US11530210B2, “Substituted heteroaromatic pyrazolo-pyridines and their use as GLUN2B receptor modulators” (JANSSEN PHARMACEUTICA NV, priority 2019, dated 2022).
Structures can show the parent of a compound that is named as a salt.

Target: T1, human GluN1/GluN2B NMDA receptors (Homo sapiens, UniProt Q13224)
T1 construct: expressed in transfected cells
Test: Calcium flux (FLIPR) assay on cloned human NR1/GluN2B ion channels expressed in mammalian cells (standard and HTS variants)
Format: cell-based
Settings: cells expressing human GluN1/GluN2B, glutamate and glycine co-agonists
Method in brief: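 Tet-On-induced stable cell line loaded with Calcium 5 dye; compounds applied 5 min (agonist check), then glutamate at ~EC40 plus 10 μM glycine for 5 min. Buffer pH 7.4 with 0.5 mM MgCl2 in dye loading (standard) or 1.5 mM (HTS). FLIPR fluorescence normalized to control wells; (+)MK-801 as antagonist control.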

T1 sequence (Q13224 27-1484, other chains not shown): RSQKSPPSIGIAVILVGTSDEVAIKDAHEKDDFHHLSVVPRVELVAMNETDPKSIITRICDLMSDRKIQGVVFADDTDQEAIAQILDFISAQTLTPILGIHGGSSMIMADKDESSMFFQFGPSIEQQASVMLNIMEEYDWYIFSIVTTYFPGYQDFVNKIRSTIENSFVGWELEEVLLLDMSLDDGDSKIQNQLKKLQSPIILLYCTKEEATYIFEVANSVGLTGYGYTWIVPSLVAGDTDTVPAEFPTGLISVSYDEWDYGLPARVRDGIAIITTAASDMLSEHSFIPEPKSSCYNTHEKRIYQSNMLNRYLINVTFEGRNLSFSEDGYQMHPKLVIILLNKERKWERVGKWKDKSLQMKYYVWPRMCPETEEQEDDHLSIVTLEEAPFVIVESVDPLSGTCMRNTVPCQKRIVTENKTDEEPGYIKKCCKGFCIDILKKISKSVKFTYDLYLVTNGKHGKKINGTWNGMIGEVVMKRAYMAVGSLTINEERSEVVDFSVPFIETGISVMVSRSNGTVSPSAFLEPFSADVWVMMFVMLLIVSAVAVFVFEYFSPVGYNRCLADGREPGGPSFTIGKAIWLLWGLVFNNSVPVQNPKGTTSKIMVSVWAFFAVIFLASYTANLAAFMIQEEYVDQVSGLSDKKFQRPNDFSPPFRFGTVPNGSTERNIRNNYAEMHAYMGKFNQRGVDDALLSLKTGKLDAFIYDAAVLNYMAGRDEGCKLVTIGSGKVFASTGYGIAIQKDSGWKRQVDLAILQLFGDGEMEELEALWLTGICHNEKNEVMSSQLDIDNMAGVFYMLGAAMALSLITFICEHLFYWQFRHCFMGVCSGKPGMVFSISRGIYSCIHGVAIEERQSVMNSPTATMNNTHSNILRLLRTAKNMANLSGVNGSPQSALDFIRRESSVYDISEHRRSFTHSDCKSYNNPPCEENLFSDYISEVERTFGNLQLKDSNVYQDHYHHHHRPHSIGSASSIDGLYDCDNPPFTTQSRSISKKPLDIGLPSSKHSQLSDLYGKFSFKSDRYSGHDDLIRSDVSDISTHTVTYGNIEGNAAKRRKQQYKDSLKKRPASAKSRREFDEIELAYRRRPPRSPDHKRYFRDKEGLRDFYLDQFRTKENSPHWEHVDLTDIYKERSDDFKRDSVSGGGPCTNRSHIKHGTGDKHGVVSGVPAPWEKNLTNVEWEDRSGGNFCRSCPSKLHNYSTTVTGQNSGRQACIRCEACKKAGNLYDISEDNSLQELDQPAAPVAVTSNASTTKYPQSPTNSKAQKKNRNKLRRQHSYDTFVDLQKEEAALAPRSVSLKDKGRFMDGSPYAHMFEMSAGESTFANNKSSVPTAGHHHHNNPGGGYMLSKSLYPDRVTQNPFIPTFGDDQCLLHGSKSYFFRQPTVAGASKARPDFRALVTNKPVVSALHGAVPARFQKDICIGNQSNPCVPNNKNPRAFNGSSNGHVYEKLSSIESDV

Row | IC50 | Structure (SMILES)
1 | 3460 nM | Fc1ccc(-c2cnc3cnn(Cc4ccccn4)c3c2)cc1 [Example 149, 6-(4-Fluorophenyl)-1-(2-pyridylmethyl)pyrazolo[4,3-b]pyridine]
2 | 90 nM | FC(F)(F)c1cccc(-c2cnc3cnn(Cc4cccnc4)c3c2)c1 [Example 163, 1-(3-Pyridylmethyl)-6-[3-(trifluoromethyl)phenyl]pyrazolo[4,3-b]pyridine hydrochloride salt]
3 | 42 nM | Cc1nnc(Cn2nc(F)c3ncc(-c4ccc(F)c(C(F)F)c4)cc32)s1 [Example 123, 2-[[6-[3-(Difluoromethyl)-4-fluoro-phenyl]-3-fluoro-pyrazolo[4,3-b]pyridin-1-yl]methyl]-5-methyl-1,3,4-thiadiazole]
4 | 113 nM | Cc1ncc(Cn2ncc3ncc(-c4ccc(F)c(C)c4)cc32)o1 [Example 48, 5-[[6-(4-Fluoro-3-methyl-phenyl)pyrazolo[4,3-b]pyridin-1-yl]methyl]-2-methyl-oxazole]
5 | 382 nM | COc1cncc(Cn2ncc3ncc(-c4cc(F)c(F)c(F)c4)cc32)c1 [Example 252, 1-[(5-Methoxy-3-pyridyl)methyl]-6-(3,4,5-trifluorophenyl)pyrazolo[4,3-b]pyridine]
6 | 64 nM | Oc1nnc(Cn2ncc3ncc(-c4ccc(F)c(C(F)F)c4)cc32)s1 [Example 17, 5-[[6-[3-(Difluoromethyl)-4-fluoro-phenyl]pyrazolo[4,3-b]pyridin-1-yl]methyl]-1,3,4-thiadiazol-2-ol]
7 | 48 nM | Fc1cncc(Cn2ncc3ncc(-c4ccc(F)c(F)c4)cc32)c1 [Example 192, 6-(3,4-Difluorophenyl)-1-[(5-fluoro-3-pyridyl)methyl]pyrazolo[4,3-b]pyridine trifluoroacetate salt]
8 | 800 nM | FC(F)(F)c1cccc(-c2cnc3cnn(Cc4ncccn4)c3c2)c1 [Example 1, 1-(Pyrimidin-2-ylmethyl)-6-[3-(trifluoromethyl)phenyl]pyrazolo[4,3-b]pyridine]
9 | 673 nM | Fc1cc(-c2cnc3cnn(Cc4cccnn4)c3c2)cc(F)c1F [Example 268, 1-(Pyridazin-3-ylmethyl)-6-(3,4,5-trifluorophenyl)pyrazolo[4,3-b]pyridine]
10 | 798 nM | FC(F)(F)c1cccc(-c2cnc3cnn(Cc4ccncc4)c3c2)c1 [Example 164, 1-(4-Pyridylmethyl)-6-[3-(trifluoromethyl)phenyl]pyrazolo[4,3-b]pyridine hydrochloride salt]
11 | 212 nM | Fc1cncc(Cn2ncc3ncc(-c4cccc(C(F)(F)F)c4)cc32)c1 [Example 171, 1-[(5-Fluoro-3-pyridyl)methyl]-6-[3-(trifluoromethyl)phenyl]pyrazolo[4,3-b]pyridine]
12 | 48 nM | Cc1cccc(-c2cnc3c(F)nn(Cc4cncc(F)c4)c3c2)c1 [Example 147, 3-Fluoro-1-[(5-fluoro-3-pyridyl)methyl]-6-(m-tolyl)pyrazolo[4,3-b]pyridine]
13 | 1410 nM | Fc1cccc(-c2cnc3cnn(Cc4cccnn4)c3c2)c1 [Example 256, 6-(3-Fluorophenyl)-1-(pyridazin-3-ylmethyl)pyrazolo[4,3-b]pyridine trifluoroacetate salt]
14 | 383 nM | COc1cccc(Cn2ncc3ncc(-c4ccc(F)c(OC(F)F)c4)cc32)n1 [Example 228, 6-[3-(Difluoromethoxy)-4-fluoro-phenyl]-1-[(6-methoxy-2-pyridyl)methyl]pyrazolo[4,3-b]pyridine]
15 | 250 nM | Cc1cncc(Cn2ncc3ncc(-c4cccc(C(F)(F)F)c4)cc32)c1 [Example 167, 1-[(5-Methyl-3-pyridyl)methyl]-6-[3-(trifluoromethyl)phenyl]pyrazolo[4,3-b]pyridine]
16 | 176 nM | Fc1ccc(Cn2ncc3ncc(-c4ccc(F)c(F)c4)cc32)cn1 [Example 191, 6-(3,4-Difluorophenyl)-1-[(6-fluoro-3-pyridyl)methyl]pyrazolo[4,3-b]pyridine]
17 | 44 nM | Cc1cc(Cn2ncc3ncc(-c4cccc(C(C)(F)F)c4)cc32)no1 [Example 45, 3-[[6-[3-(1,1-Difluoroethyl)phenyl]pyrazolo[4,3-b]pyridin-1-yl]methyl]-5-methyl-isoxazole]
18 | 146 nM | FC(F)Oc1cc(-c2cnc3cnn(Cc4cncc(Cl)c4)c3c2)ccc1Cl [Example 243, 6-[4-Chloro-3-(difluoromethoxy)phenyl]-1-[(5-chloro-3-pyridyl)methyl]pyrazolo[4,3-b]pyridine]
19 | 668 nM | Cn1cnc(Cn2ncc3ncc(-c4cccc(C(F)(F)F)c4)cc32)c1 [Example 36, 1-[(1-Methylimidazol-4-yl)methyl]-6-[3-(trifluoromethyl)phenyl]pyrazolo[4,3-b]pyridine]
20 | 383 nM | FC(F)(F)c1cccc(-c2cnc3cnn(Cc4ncno4)c3c2)c1 [Example 87, 5-[[6-[3-(Trifluoromethyl)phenyl]pyrazolo[4,3-b]pyridin-1-yl]methyl]-1,2,4-oxadiazole]

Row | IC50 | Structure (SMILES)
21 | 133 nM | Cc1nnc(Cn2ncc3ncc(-c4ccc(Cl)c(OC(F)F)c4)cc32)s1 [Example 135, 2-[[6-[4-Chloro-3-(difluoromethoxy)phenyl]pyrazolo[4,3-b]pyridin-1-yl]methyl]-5-methyl-1,3,4-thiadiazole]
22 | 84 nM | Cc1cnc(Cn2ncc3ncc(-c4ccc(F)c(C(F)F)c4)cc32)s1 [Example 65, 2-[[6-[3-(Difluoromethyl)-4-fluoro-phenyl]pyrazolo[4,3-b]pyridin-1-yl]methyl]-5-methyl-thiazole]
23 | 7930 nM | COc1ccc(Cn2ncc3ncc(-c4cccc(C(F)(F)F)c4)cc32)cc1 [Example 24, 1-[(4-Methoxyphenyl)methyl]-6-[3-(trifluoromethyl)phenyl]pyrazolo[4,3-b]pyridine hydrochloride salt]
24 | 72 nM | Cc1nnc(Cn2ncc3ncc(-c4ccc(F)c(OC(F)F)c4)cc32)s1 [Example 133, 2-[[6-[3-(Difluoromethoxy)-4-fluoro-phenyl]pyrazolo[4,3-b]pyridin-1-yl]methyl]-5-methyl-1,3,4-thiadiazole]
25 | > 10000 nM | Cc1nnc(Cn2ncc3ncc(-c4ccc(F)c(C(=O)O)c4)cc32)o1 [Example 293, 2-Fluoro-5-(1-((5-methyl-1,3,4-oxadiazol-2-yl)methyl)-1H-pyrazolo[4,3-b]pyridin-6-yl)benzoic acid]
26 | 52 nM | Fc1ccc(-c2cnc3cnn(Cc4cncnc4)c3c2)cc1OC(F)F [Example 278, 6-[3-(Difluoromethoxy)-4-fluoro-phenyl]-1-(pyrimidin-5-ylmethyl)pyrazolo[4,3-b]pyridine]
27 | 271 nM | Cn1ccc(Cn2ncc3ncc(-c4ccc(F)c(C(F)F)c4)cc32)n1 [Example 39, 6-[3-(Difluoromethyl)-4-fluoro-phenyl]-1-[(1-methylpyrazol-3-yl)methyl]pyrazolo[4,3-b]pyridine]
28 | 21 nM | Cc1cc(-c2cnc3cnn(Cc4cncc(F)c4)c3c2)ccc1F [Example 183, 6-(4-Fluoro-3-methyl-phenyl)-1-[(5-fluoro-3-pyridyl)methyl]pyrazolo[4,3-b]pyridine]
29 | 109 nM | CC(F)(F)c1cc(-c2cnc3cnn(Cc4cccnc4)c3c2)ccc1F [Example 216, 6-[3-(1,1-Difluoroethyl)-4-fluoro-phenyl]-1-(3-pyridylmethyl)pyrazolo[4,3-b]pyridine]
30 | 202 nM | Cc1nc(Cn2ncc3ncc(-c4cccc(C(F)(F)F)c4)cc32)no1 [Example 86, 5-Methyl-3-[[6-[3-(trifluoromethyl)phenyl]pyrazolo[4,3-b]pyridin-1-yl]methyl]-1,2,4-oxadiazole]
31 | 3260 nM | Cc1noc(Cn2ncc3ncc(-c4cc(C(F)(F)F)ccc4F)cc32)n1 [Example 109, 5-[[6-[2-Fluoro-5-(trifluoromethyl)phenyl]pyrazolo[4,3-b]pyridin-1-yl]methyl]-3-methyl-1,2,4-oxadiazole]
32 | 1040 nM | Fc1ncccc1Cn1ncc2ncc(-c3cccc(C(F)(F)F)c3)cc21 [Example 170, 1-[(2-Fluoro-3-pyridyl)methyl]-6-[3-(trifluoromethyl)phenyl]pyrazolo[4,3-b]pyridine]
33 | > 10000 nM | FC(F)(F)c1ccc(Cn2ncc3ncc(-c4cccc(C(F)(F)F)c4)cc32)cc1 [Example 25, 6-[3-(Trifluoromethyl)phenyl]-1-[[4-(trifluoromethyl)phenyl]methyl]pyrazolo[4,3-b]pyridine hydrochloride salt]
34 | 34 nM | Cc1nonc1Cn1ncc2ncc(-c3ccc(F)c(C(F)F)c3)cc21 [Example 98, 3-[[6-[3-(Difluoromethyl)-4-fluoro-phenyl]pyrazolo[4,3-b]pyridin-1-yl]methyl]-4-methyl-1,2,5-oxadiazole]
35 | 891 nM | Cn1cnc(Cn2ncc3ncc(-c4cccc(C(F)(F)F)c4)cc32)n1 [Example 71, 1-[(1-Methyl-1,2,4-triazol-3-yl)methyl]-6-[3-(trifluoromethyl)phenyl]pyrazolo[4,3-b]pyridine]
36 | 3020 nM | Cc1ncc(Cn2ncc3ncc(-c4ccc(Cl)c(C)c4)cc32)cn1 [Example 286, 6-(4-Chloro-3-methyl-phenyl)-1-[(2-methylpyrimidin-5-yl)methyl]pyrazolo[4,3-b]pyridine]
37 | 112 nM | Fc1ccc(-c2cnc3cnn(Cc4cccnn4)c3c2)cc1OC(F)F [Example 263, 6-[3-(Difluoromethoxy)-4-fluoro-phenyl]-1-(pyridazin-3-ylmethyl)pyrazolo[4,3-b]pyridine]
38 | 4740 nM | Cc1cc(Cn2ncc3ncc(-c4cccc(C(F)(F)F)c4)cc32)[nH]n1 [Example 14, 1-[(3-Methyl-1H-pyrazol-5-yl)methyl]-6-[3-(trifluoromethyl)phenyl]pyrazolo[4,3-b]pyridine]
39 | 35 nM | Cc1nnc(Cn2ncc3ncc(-c4ccc(F)c(C)c4F)cc32)o1 [Example 118, 2-[[6-(2,4-Difluoro-3-methyl-phenyl)pyrazolo[4,3-b]pyridin-1-yl]methyl]-5-methyl-1,3,4-oxadiazole]
40 | 70 nM | Cc1cncc(Cn2ncc3ncc(-c4ccc(F)c(F)c4)cc32)c1 [Example 189, 6-(3,4-Difluorophenyl)-1-[(5-methyl-3-pyridyl)methyl]pyrazolo[4,3-b]pyridine]
